Source: the METLIN SMRT retention time set (Domingo-Almenara et al. 2019)

Assay: gradient 5% acetonitrile 3 min, to 50% in 2 min, to 85% in 15 min, held 3 min, 100 µL/min
Conditions: column: Zorbax Extend-C18 2.1 x 50 mm; eluents: water / acetonitrile, 0.1% formic acid
Outline: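 Mixtures of ~100 pure standards were chromatographed on a Zorbax Extend-C18 column (2.1 × 50 mm, 1.8 μm) at 100 μL/min using water and acetonitrile, each with 0.1% formic acid. Detection used a quadrupole time-of-flight mass spectrometer in positive and negative ionization mode, and data collection spanned 3 months. Retention time was obtained from adduct peaks picked computationally and each checked manually.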

SMILES | RP-LC retention time
CCn1ccc2oc(C)c(C(=O)NCc3ccccc3Br)c2c1=O | 1020 s
CCOc1ccc(NC(=O)c2c(O)c3cccnc3n(-c3cccc(F)c3)c2=O)cc1 | 1280 s
Cc1cc(=O)n(CC(=O)Nc2ccccc2)c(N2CCc3ccccc3C2)n1 | 765 s
O=C(O)c1cccc(Nc2c(-c3cccc(Br)c3)nc3cnccn23)c1 | 748 s
CNS(=O)(=O)c1cc(-c2nnc(-c3ccc(OC)c(OC)c3)o2)ccc1C | 779 s
CCC(CC)C(=O)Nc1c(-c2ccccc2)nc2cc(C)ccn12 | 654 s
CCN(CC)c1ncc2c(n1)CCC(C(=O)Nc1ccc(OC)c(OC)c1)C2 (stereo not drawn) | 660 s
CC(C)CNC(=O)C1CCCN(c2ccnc(-c3ccc(F)cc3)n2)C1 (stereo not drawn) | 659 s
O=C(O)CCCC(=O)N1C[C@H]2C[C@@H](C1)c1cccc(=O)n1C2 | 564 s
CCc1noc(NC(C)=O)c1-c1ccc(OC)c(S(=O)(=O)Nc2cc(OC)ccc2OC)c1 | 774 s
CN(C)CCNC(=O)c1cc(N2CCCC2)n2nccc2n1 | 590 s
O=C(c1cc(-c2ccccc2Cl)nc2ccccc12)N1CCN(c2ccccn2)CC1 | 676 s
Cc1nc(C2(C)CCN(S(=O)(=O)c3cc(F)ccc3C)CC2)no1 | 948 s
COc1ccc(NC(=O)NCC23CCC=C2N(CC2CC2)C(=O)CC3)cc1 (stereo not drawn) | 813 s
O=C(Cn1cnc2c(-c3ccc(F)cc3)csc2c1=O)N1CCCc2ccccc21 | 1020 s
Cc1noc(-c2ccc(NC(=O)COc3ccccc3F)cc2)n1 | 832 s
CCCCS(=O)(=O)c1cc2c(cc1NC(=O)Cc1ccc(Cl)cc1)n(C)c(=O)n2C | 919 s
COC(=O)[C@H](CCSC)NC(=O)c1cccc(-n2cnnn2)c1 | 707 s
CCOCCCN1C(=O)CN(C2CCCCCC2)C(=O)C1c1ccc(OCC)c(OC)c1 (stereo not drawn) | 925 s
Cc1noc(-c2ccc(OC3CN(C(=O)c4ccco4)C3)cc2)n1 | 789 s
Cn1cc(-c2ccccc2)cc1C(=O)NCc1cccs1 | 979 s
O=C(c1cc(-c2ccco2)on1)N1CCn2c1nc1ccccc12 | 621 s

SMILES | RP-LC retention time
O=C(NCc1ccc2c(c1)OCO2)c1c(O)c2cccnc2n(Cc2ccccc2)c1=O | 1290 s
COc1cc2c(cc1OC)C(C1(O)CCCCC1)NCC2 (stereo not drawn) | 660 s
O=C(NCCOc1ccc2c(c1)OCO2)c1c(F)cccc1F | 760 s
Cc1ccc2nc(-c3ccc(N4CCOCC4)cc3)c(Nc3ccc4c(c3)OCCO4)n2c1 | 692 s
Cc1ccc(C)c(CS(=O)(=O)N2CCc3nc(-c4ccc(Cl)cc4)ncc3C2)c1 | 1290 s
CC(Cc1ccco1)NC(=O)CCCn1c(=O)c2cccn2c2ccc(Br)cc21 (stereo not drawn) | 924 s
Cn1nccc1-c1cccc(-c2noc(-c3cccs3)n2)c1 | 1030 s
Cc1ccccc1CC(=O)Nc1ccc2c(c1)Sc1ncccc1C(=O)N2C(C)C | 912 s
COc1ccc(-c2c(C)nn3c(C)c(C(=O)OC(C)C)nnc23)cc1 | 1010 s
Cc1ccc(NC(=O)Cn2nc3c(Oc4cccc(F)c4)nccn3c2=O)c(F)c1 | 878 s
C[C@@]1(C(=O)Nc2ccc(F)nc2)CCCN1c1nc(Nc2cc(C3CC3)[nH]n2)c2cccn2n1 | 946 s
O=C(Cn1cc(S(=O)(=O)c2ccc(F)cc2)c2ccccc21)NC1CC1 | 748 s
C=CCn1c(C)c(CC(=O)NCC(C)C)c(=O)n2nc(-c3ccccc3)nc12 | 779 s
O=C(Cc1ccccc1Cl)NCC(O)c1ccc(C(F)(F)F)cc1 (stereo not drawn) | 806 s
Cc1ccc(S(=O)(=O)Nc2ccc3c(c2)CCC(=O)N3CC(C)C)c(C)c1 | 945 s
Cc1ccc(N2CCN(C(=O)C3CCc4sc(C(=O)N(C)C)cc4C3)CC2)cc1 (stereo not drawn) | 825 s
CC1Cc2cc(-c3cc(CC(=O)Nc4nc5ccccc5[nH]4)no3)ccc2O1 (stereo not drawn) | 657 s
CC(C)CCNC(=O)C12CCCC=C1N(c1ccccc1)C(=O)CC2 (stereo not drawn) | 819 s
COc1ccccc1-c1csc(-c2nnn(-c3ccccc3)c2N)n1 | 1070 s
COc1ccc(Cl)cc1N1CC(c2nc(-c3ccncc3)no2)CC1=O (stereo not drawn) | 752 s
Cc1ccc(C2=NC3(CCN(C(=O)c4ccc(C#N)cc4)CC3)ON2)cc1 | 776 s
Cc1cccc(N2CCN(C(=O)CCC3CCN(c4cc(NC5CC5)ncn4)CC3)CC2)c1 | 717 s

SMILES | RP-LC retention time
CSc1ccc(NC(=O)c2cn3c(n2)CSCC3)cc1 | 727 s
Cc1ccc(C)c(N2CCN(C(=O)C3CCCN(c4ncnc5c4nc4n5CCCCC4)C3)CC2)c1 (stereo not drawn) | 1050 s
O=c1c2cc3c(cc2nc(SCc2nc(-c4cccc(F)c4)no2)n1Cc1ccccc1)OCO3 | 1250 s
CC(=O)N1c2ccc(S(=O)(=O)N3CCCCCC3)cc2CC1C(=O)NC1CCCCCC1 (stereo not drawn) | 959 s
Cc1noc2nc(CCC(=O)NCc3ccc(Cl)cc3)nc(N3CCCC3)c12 | 819 s
O=C(Nc1ccccc1)c1cc(C2CC2)n2nccc2n1 | 957 s
CN(CC1CCOC1)C(=O)Nc1cc(F)ccc1F (stereo not drawn) | 704 s
Cc1cc(C)cc(NC(=O)C2CCN(S(=O)(=O)c3c(C)nn(-c4ccccc4)c3C)CC2)c1 | 1060 s
CCn1cnc(S(=O)(=O)N2CCC(C(=O)N3CCC(C)CC3)CC2)c1 | 678 s
CCCCNC(=O)Cc1nnc(-c2ccc(C)cc2)o1 | 755 s
CCN1CCN(c2ccc(N3CCCC(C(=O)N4CCN(c5cccc(Cl)c5)CC4)C3)nn2)CC1 (stereo not drawn) | 610 s
COCCCNC(=O)c1ccc(-n2nc(C)c3c2CCCC3=O)cc1 | 660 s
Cn1nc(-c2nc(C3CC3)no2)c2c1CCN(C(=O)Nc1ccc(Cl)cc1)C2 | 882 s
CCc1cccc2c1[nH]c1cc(NC(=O)CCc3c(C)[nH]c(=O)[nH]c3=O)ccc12 | 677 s
Cc1nn(C)c(=O)c2cc(S(=O)(=O)N3CCC(Cc4ccccc4)CC3)cn12 | 943 s
CC(=O)c1cccc(NC(=O)C2Oc3ccccc3NC2=O)c1 (stereo not drawn) | 702 s
CCc1nnc(-c2cc(C)n(CC(=O)Nc3cccc(SC)c3)c2C)o1 | 846 s
CNC(=O)c1ccc(-c2nc3cc(NS(=O)(=O)c4ccc(C)cc4C)ccc3n2C)cc1 | 657 s
Cc1ccc(C)c(N2CCN(C(=O)Cn3ccc4ccc(N5CCOCC5)nc43)CC2)c1 | 1110 s
CCOc1ccc(NC(=O)CCSc2nnc(C)s2)cc1 | 709 s
CC(C(=O)NC1CCSC1=O)n1nc(-n2cccn2)ccc1=O (stereo not drawn) | 616 s
COc1ccc(-c2ncc3c(n2)CCN(C(=O)Cc2ccccc2Cl)C3)cc1 | 989 s

SMILES | RP-LC retention time
CCOc1ccc(S(=O)(=O)N2CCC(C(=O)Nc3ccc(C(N)=O)cc3)CC2)cc1C | 782 s
CCOC(=O)c1c(S(=O)(=O)N2CCC(C(=O)Nc3ccc(C)cc3C)CC2)c(C)n(CC)c1C | 928 s
O=C(C1CCCN(c2ncnc3c2nc2n3CCCCC2)C1)N1CCN(c2ccccc2)CC1 (stereo not drawn) | 803 s
O=C(NC1CCCC1)c1nc2ccccn2c1-c1ccc(F)cc1 | 826 s
O=C(Nc1ccc(Cl)cc1F)N1CCCN(C2CCN(CC3CC3)C2=O)CC1 (stereo not drawn) | 575 s
O=C(COc1ccc(F)cc1)Nc1ccc2c(c1)CCC(=O)N2 | 705 s
CCOC(=O)N1CCC(c2nnc(-c3ccco3)s2)CC1 | 728 s
O=C(Cn1c(C(=O)c2cccc(F)c2)nc2ccccc21)NCC1CCCO1 (stereo not drawn) | 805 s
O=C(NCCN1CCOCC1)C1CCN(c2ccc3nnc(-c4ccccc4Cl)n3n2)CC1 | 596 s
COC(=O)c1cc2c([nH]c1=O)CC(c1ccc(OC)cc1OC)CC2=O (stereo not drawn) | 699 s
O=C(C1=NN(Cc2ccccc2F)c2ccc(Cl)cc2S1(=O)=O)N1CCOCC1 | 875 s
CCOC(=O)C1CCN(c2cc(-c3nc(-c4ccccc4)no3)c3ccccc3n2)CC1 | 1370 s
CCN1CCN(C(=O)C(C)n2c3ccccc3c3cnn(C)c(=O)c32)CC1 (stereo not drawn) | 585 s
CCN1CCN(C(=O)Nc2cccc(C(=O)OC)c2)c2cccnc21 | 612 s
Cc1ccccc1CNC(=O)CN1C(=O)CCCc2cc(S(=O)(=O)N3CCCCC3)ccc21 | 911 s
CCN1C(=O)c2cccnc2Sc2cc(CNC(=O)c3cccnc3SC)ccc21 | 721 s
CCCCn1cc(S(=O)(=O)Nc2cccc(Cl)c2)c2cccnc21 | 1020 s
CCOC(=O)O[C@]1(C(=O)OCCl)CCC2[C@@H]3CCC4=CC(=O)C=C[C@]4(C)C3[C@@H](O)C[C@@]21C (stereo partly drawn) | 1110 s
O=C(Cn1cccc1-c1nc(-c2ccccc2)cs1)NCCCN1CCCC1 | 601 s
CSc1cccc(NC(=O)c2c[nH]c3ncccc23)c1 | 752 s
O=C(Cc1ccc(Br)cc1)N1CCCN(c2cc(-c3ccc(F)cc3)[nH]n2)CC1 | 773 s
Cc1ccc2c(=O)cc(C(=O)NCC(c3ccccc3)N(C)C)oc2c1C (stereo not drawn) | 636 s
